The results in this text go back to patent US12448392B2, “Spiropiperidine derivatives” (89BIO LTD, priority 2016, dated 2025).

T1 sequence (P49327 whole entry): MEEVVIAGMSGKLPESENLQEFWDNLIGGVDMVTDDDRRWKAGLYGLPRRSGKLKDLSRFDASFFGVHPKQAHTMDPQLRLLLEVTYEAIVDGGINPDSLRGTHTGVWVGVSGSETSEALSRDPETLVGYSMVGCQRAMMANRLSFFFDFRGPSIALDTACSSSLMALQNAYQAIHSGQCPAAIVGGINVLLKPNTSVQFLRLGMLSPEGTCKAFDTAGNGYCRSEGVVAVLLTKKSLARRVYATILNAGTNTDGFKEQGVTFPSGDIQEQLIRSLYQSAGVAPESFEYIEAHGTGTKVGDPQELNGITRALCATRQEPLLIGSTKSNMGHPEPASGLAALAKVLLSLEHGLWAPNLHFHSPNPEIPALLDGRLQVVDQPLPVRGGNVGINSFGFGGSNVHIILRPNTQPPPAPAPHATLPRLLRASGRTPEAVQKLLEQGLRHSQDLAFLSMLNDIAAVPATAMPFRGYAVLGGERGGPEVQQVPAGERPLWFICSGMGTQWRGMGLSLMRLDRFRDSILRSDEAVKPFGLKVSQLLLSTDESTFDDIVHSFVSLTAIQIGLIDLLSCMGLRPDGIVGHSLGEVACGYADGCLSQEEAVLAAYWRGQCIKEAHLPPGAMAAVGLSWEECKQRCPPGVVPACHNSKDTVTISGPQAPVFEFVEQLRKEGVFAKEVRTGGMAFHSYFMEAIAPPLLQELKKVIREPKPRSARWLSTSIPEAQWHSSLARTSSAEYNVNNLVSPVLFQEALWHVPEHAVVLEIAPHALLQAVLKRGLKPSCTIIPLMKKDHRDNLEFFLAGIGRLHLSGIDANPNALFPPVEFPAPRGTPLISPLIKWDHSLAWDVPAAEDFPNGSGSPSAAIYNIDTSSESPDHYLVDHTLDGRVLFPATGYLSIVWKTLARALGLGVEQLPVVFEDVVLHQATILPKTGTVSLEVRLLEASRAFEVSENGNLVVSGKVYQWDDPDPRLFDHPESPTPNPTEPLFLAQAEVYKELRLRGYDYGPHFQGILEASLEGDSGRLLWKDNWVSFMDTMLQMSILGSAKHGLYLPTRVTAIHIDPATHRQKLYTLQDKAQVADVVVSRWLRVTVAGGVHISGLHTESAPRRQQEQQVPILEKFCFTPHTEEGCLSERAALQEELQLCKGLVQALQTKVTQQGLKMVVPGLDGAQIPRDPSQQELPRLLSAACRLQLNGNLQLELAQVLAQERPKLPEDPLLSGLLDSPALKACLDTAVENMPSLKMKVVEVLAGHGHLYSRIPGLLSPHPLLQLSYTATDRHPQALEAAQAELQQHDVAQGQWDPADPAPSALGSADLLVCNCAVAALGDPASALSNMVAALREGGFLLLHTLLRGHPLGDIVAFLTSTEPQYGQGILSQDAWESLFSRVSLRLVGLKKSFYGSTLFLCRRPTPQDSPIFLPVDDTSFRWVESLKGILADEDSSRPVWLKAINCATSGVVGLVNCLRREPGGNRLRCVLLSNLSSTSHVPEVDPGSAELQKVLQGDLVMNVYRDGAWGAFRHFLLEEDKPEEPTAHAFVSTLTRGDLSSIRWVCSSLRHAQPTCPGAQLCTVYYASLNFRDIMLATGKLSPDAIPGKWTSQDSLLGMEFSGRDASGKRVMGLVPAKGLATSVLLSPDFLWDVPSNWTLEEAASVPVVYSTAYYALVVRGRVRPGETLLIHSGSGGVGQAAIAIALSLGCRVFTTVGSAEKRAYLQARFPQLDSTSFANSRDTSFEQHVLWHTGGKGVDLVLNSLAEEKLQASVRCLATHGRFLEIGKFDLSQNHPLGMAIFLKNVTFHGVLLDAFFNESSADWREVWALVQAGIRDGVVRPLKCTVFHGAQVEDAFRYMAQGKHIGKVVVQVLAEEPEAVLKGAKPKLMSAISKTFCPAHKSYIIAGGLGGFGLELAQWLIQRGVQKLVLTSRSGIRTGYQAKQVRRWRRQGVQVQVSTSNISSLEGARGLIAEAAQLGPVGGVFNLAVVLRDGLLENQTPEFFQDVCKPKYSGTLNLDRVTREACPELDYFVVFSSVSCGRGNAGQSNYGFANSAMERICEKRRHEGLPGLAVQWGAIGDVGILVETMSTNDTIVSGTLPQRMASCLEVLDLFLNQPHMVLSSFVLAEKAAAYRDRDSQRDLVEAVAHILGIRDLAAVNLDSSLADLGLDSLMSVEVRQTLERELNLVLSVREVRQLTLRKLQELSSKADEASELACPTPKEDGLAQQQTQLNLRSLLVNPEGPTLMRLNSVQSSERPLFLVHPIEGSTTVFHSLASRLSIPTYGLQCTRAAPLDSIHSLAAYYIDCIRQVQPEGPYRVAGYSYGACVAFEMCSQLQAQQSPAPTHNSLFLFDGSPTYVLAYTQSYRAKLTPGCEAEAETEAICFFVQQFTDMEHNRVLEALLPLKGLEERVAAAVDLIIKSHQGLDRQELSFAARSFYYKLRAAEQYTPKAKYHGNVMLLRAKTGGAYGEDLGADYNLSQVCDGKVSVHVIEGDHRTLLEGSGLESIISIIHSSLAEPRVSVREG

The first assay addresses T1, recombinant human baculovirus-expressed GST-tagged FASN (Homo sapiens, UniProt P49327).
T1 construct: GST
Put plainly: biochemical.
Details: not given
Take `O=C(C1CC1)N1CCC2(CC1)OCc1cc(-c3cnc4ccccc4c3)ccc1O2` [Example 40, Cyclopropyl-[6-(3-quinolyl)spiro[4H-1,3-benzodioxine-2,4′-piperidine]-1′-yl]methanone]: the IC50 is 1 to 99 nM.
On the same count and under the same terms, as for `O=C(C1CCC1)N1CCC2(CC1)OCc1cc(-c3cnc4ccccc4c3)ccc1O2` [Example 41, Cyclobutyl-[6-(3-quinolyl)spiro[4H-1,3-benzodioxine-2,4′-piperidine]-1′-yl]methanone], the figure is 1 to 99 nM; as for `O=C([C@H]1CCCO1)N1CCC2(CC1)OCc1cc(-c3cnc4ccccc4c3)ccc1O2` [Example 48, [6-(3-Quinolyl)spiro[4H-1,3-benzodioxine-2,4′-piperidine]-1′-yl]-[(2R)-tetrahydrofuran-2-yl]methanone], 1 to 99 nM; as for `COc1c(-c2ccc3c(c2)COC2(CCN(C(=O)C4CC4)CC2)O3)ccc2cccnc12` [Example 49, Cyclopropyl-[6-(8-methoxy-7-quinolyl)spiro[4H-1,3-benzodioxine-2,4′-piperidine]-1′-yl]methanone], 1 to 99 nM.
On the same count and under the same terms, the same measure for `Cc1c(-c2ccc3c(c2)COC2(CCN(C(=O)[C@H]4CCCO4)CC2)O3)ccc2cccnc12` [Example 50, [6-(8-Methyl-7-quinolyl)spiro[4H-1,3-benzodioxine-2,4′-piperidine]-1′-yl]-[(2R)-tetrahydrofuran-2-yl]methanone]: 1 to 99 nM; for `Cc1c(-c2ccc3c(c2)COC2(CCN(C(=O)[C@H]4CCCO4)CC2)O3)cnc2ccccc12` [Example 51]: 1 to 99 nM; for `CCC(=O)N1CCC2(CC1)OCc1cc(-c3cnc4ccccc4c3C)ccc1O2` [Example 52, 1-[6-(4-Methyl-3-quinolyl)spiro[4H-1,3-benzodioxine-2,4′-piperidine]-1′-yl]propan-1-one]: 1 to 99 nM.
On the same count and under the same terms, the same measure for `CCC(=O)N1CCC2(CC1)OCc1cc(-c3ccc4cccnc4c3C)ccc1O2` [Example 53, 1-[6-(8-Methyl-7-quinolyl)spiro[4H-1,3-benzodioxine-2,4′-piperidine]-1′-yl]propan-1-one]: 1 to 99 nM; for `Cc1c(-c2ccc3c(c2)COC2(CCN(C(=O)C4CC4)CC2)O3)ccc2cccnc12` [Example 54, Cyclopropyl-[6-(8-methyl-7-quinolyl)spiro[4H-1,3-benzodioxine-2,4′-piperidine]-1′-yl]methanone]: 1 to 99 nM.
In the case of `CCC(=O)N1CCC2(CC1)OCc1cc(-c3ccc4cccnc4c3OC)ccc1O2` [Example 55, 1-[6-(8-Methoxy-7-quinolyl)spiro[4H-1,3-benzodioxine-2,4′-piperidine]-1′-yl]propan-1-one], the IC50 was in the range of 1 to 99 nM.
Regarding `COc1c(-c2ccc3c(c2)COC2(CCN(C(=O)[C@H]4CCCO4)CC2)O3)ccc2cccnc12` [Example 56, [6-(8-Methoxy-7-quinolyl)spiro[4H-1,3-benzodioxine-2,4′-piperidine]-1′-yl]-[(2R)-tetrahydrofuran-2-yl]methanone], the IC50 lay within 1 to 99 nM.
Consider `CCC(=O)N1CCC2(CC1)OCc1cc(-c3ccc4cccnc4c3Cl)ccc1O2` [Example 57, 1-[6-(8-Chloro-7-quinolyl)spiro[4H-1,3-benzodioxine-2,4′-piperidine]-1′-yl]propan-1-one], for which the IC50 lay in the range of 1 to 99 nM.
As to `O=C(C1CC1)N1CCC2(CC1)OCc1cc(-c3ccc4cccnc4c3Cl)ccc1O2` [Example 58, [6-(8-Chloro-7-quinolyl)spiro[4H-1,3-benzodioxine-2,4′-piperidine]-1′-yl]-cyclopropyl-methanone], the IC50 is 1 to 99 nM.
Still for that read-out and setting: as for `O=C([C@H]1CCCO1)N1CCC2(CC1)OCc1cc(-c3ccc4cccnc4c3Cl)ccc1O2` [Example 59, [6-(8-Chloro-7-quinolyl)spiro[4H-1,3-benzodioxine-2,4′-piperidine]-1′-yl]-[(2R)-tetrahydrofuran-2-yl]methanone], the figure is 1 to 99 nM; as for `CC(=O)OCC(=O)N1CCC2(CC1)OCc1cc(-c3ccc4cccnc4c3C)ccc1O2` [Example 60, [2-[6-(8-methyl-7-quinolyl)spiro[4H-1,3-benzodioxine-2,4′-piperidine]-1′-yl]-2-oxo-ethyl]acetate], 100 to 999 nM; as for `Cc1c(-c2ccc3c(c2)COC2(CCN(C(=O)CO)CC2)O3)ccc2cccnc12` [Example 62, 2-Hydroxy-1-[6-(8-methyl-7-quinolyl)spiro[4H-1,3-benzodioxine-2,4′-piperidine]-1′-yl]ethanone], 100 to 999 nM.

The assay is the same for the next values; noted with them: 5 nM FASN, 150 μM NADPH, 10 μM acetyl-CoA, 25 μM malonyl-CoA, 90 minutes incubation; read-out: IC50 data for Compounds of Formula I, Activity.
Take `CCC(=O)N1CCC2(CC1)CC(=O)c1cc(-c3cnc4ccccc4c3)ccc1O2` [Example 38, 1′-Propanoyl-6-(3-quinolyl)spiro[chromane-2,4′-piperidine]-4-one]: the half-maximal inhibitory concentration (IC50) lay within 100 to 999 nM.
On the same count and under the same terms, as for `COC(=O)N1CCC2(CC1)CC(=O)c1cc(-c3cnc4ccccc4c3)ccc1O2` [Example 39, Methyl 4-oxo-6-(3-quinolyl)spiro[chromane-2,4′-piperidine]-1′-carboxylate], the figure is 1000 to 10000 nM; as for `CCC(=O)N1CCC2(CC1)CC(O)c1cc(-c3cnc4ccccc4c3)ccc1O2` (stereo not drawn) [Example 42, 1-[4-Hydroxy-6-(3-quinolyl)spiro[chromane-2,4′-piperidine]-1′-yl]propan-1-one], 100 to 999 nM.
The same measure, in the same setting: as for `CCC(=O)N1CCC2(C=Cc3cc(-c4cnc5ccccc5c4)ccc3O2)CC1` [Example 43, 1-[6-(3-Quinolyl)spiro[chromene-2,4′-piperidine]-1′-yl]propan-1-one], the figure is 1 to 99 nM.
Same read-out and setting: the same measure for `O=C(C1CC1)N1CCC2(C=Cc3cc(-c4cnc5ccccc5c4)ccc3O2)CC1` [Example 44, Cyclopropyl-[6-(3-quinolyl)spiro[chromene-2,4′-piperidine]-1′-yl]methanone]: 1 to 99 nM; for `O=C(C1CCC1)N1CCC2(C=Cc3cc(-c4cnc5ccccc5c4)ccc3O2)CC1` [Example 45, Cyclobutyl-[6-(3-quinolyl)spiro[chromene-2,4′-piperidine]-1′-yl]methanone]: 1 to 99 nM.
As for `O=C(C1CC1)N1CCC2(CC1)CC(O)c1cc(-c3cnc4ccccc4c3)ccc1O2` (stereo not drawn) [Example 46, Cyclopropyl-[4-hydroxy-6-(3-quinolyl)spiro[chromane-2,4′-piperidine]-1′-yl]methanone], the half-inhibitory concentration (IC50) fell in the range of 100 to 999 nM.
On the same count and under the same terms, as for `CCC(=O)N1CCC2(CCc3cc(-c4cnc5ccccc5c4)ccc3O2)CC1` [Example 47, 1-[6-(3-Quinolyl)spiro[chromane-2,4′-piperidine]-1′-yl]propan-1-one], the figure is 1 to 99 nM; as for `Cc1c(-c2ccc3c(c2)CCC2(CCN(C(=O)CO)CC2)O3)ccc2cccnc12` [Example 61, 2-Hydroxy-1-[6-(8-methyl-7-quinolyl)spiro[chromane-2,4′-piperidine]-1′-yl]-ethanone], 100 to 999 nM; as for `NC(=O)N1CCC2(CCc3cc(-c4ccc5cccnc5c4Cl)ccc3O2)CC1` [Example 63, 6-(8-Chloro-7-quinolyl)spiro[chromane-2,4′-piperidine]-1′-carboxamide], 1 to 99 nM.
On the same count and under the same terms, as for `CC(=O)OCC(=O)N1CCC2(CCc3cc(-c4ccc5cccnc5c4Cl)ccc3O2)CC1` [Example 64, [2-[6-(8-chloro-7-quinolyl)spiro[chromane-2,4′-piperidine]-1′-yl]-2-oxo-ethyl]acetate], the figure is 100 to 999 nM; as for `O=C(NOC1CCCCO1)N1CCC2(CCc3cc(-c4ccc5cccnc5c4Cl)ccc3O2)CC1` (stereo not drawn) [Example 65, 6-(8-Chloro-7-quinolyl)-N-tetrahydropyran-2-yloxy-spiro[chromane-2,4′-piperidine]-1′-carboxamide], 1 to 99 nM.
The same measure, in the same setting: the same measure for `CCNC(=O)N1CCC2(CCc3cc(-c4ccc5cccnc5c4Cl)ccc3O2)CC1` [Example 66, 6-(8-chloro-7-quinolyl)-N-ethyl-spiro[chromane-2,4′-piperidine]-1′-carboxamide]: 1 to 99 nM; for `O=C(CO)N1CCC2(CCc3cc(-c4ccc5cccnc5c4Cl)ccc3O2)CC1` [Example 67, 1-[6-(8-chloro-7-quinolyl)spiro[chromane-2,4′-piperidine]-1′-yl]-2-hydroxy-ethanone]: 1000 to 10000 nM.
Consider `O=C(NO)N1CCC2(CCc3cc(-c4ccc5cccnc5c4Cl)ccc3O2)CC1` [Example 68, 6-(8-Chloro-7-quinolyl)spiro[chromane-2,4′-piperidine]-1′-carbohydroxamic acid], for which the IC50 is 100 to 999 nM.
Same read-out and setting: the same measure for `CCONC(=O)N1CCC2(CCc3cc(-c4ccc5cccnc5c4Cl)ccc3O2)CC1` [Example 69, 6-(8-chloro-7-quinolyl)-N-ethoxy-spiro[chromane-2,4′-piperidine]-1′-carboxamide]: 1 to 99 nM; for `CONC(=O)N1CCC2(CCc3cc(-c4ccc5cccnc5c4Cl)ccc3O2)CC1` [Example 70, 6-(8-chloro-7-quinolyl)-N-methoxy-spiro[chromane-2,4′-piperidine]-1′-carboxamide]: 1 to 99 nM.
As for `CCOC(=O)N1CCC2(CCc3cc(-c4ccc5cccnc5c4Cl)ccc3O2)CC1` [Example 71, Ethyl 6-(8-chloro-7-quinolyl)spiro[chromane-2,4′-piperidine]-1′-carboxylate], the IC50 was 1000 to 10000 nM.
As for `NC(=O)N1CCC2(CCc3cc(-c4cnc5ccccc5c4)ccc3O2)CC1` [Example 72, 6-(3-Quinolyl)spiro[chromane-2,4′-piperidine]-1′-carboxamide], the IC50 was in the range of 100 to 999 nM.
Same read-out and setting: as for `NC(=O)N1CCC2(CCc3cc(-c4ccc5occc5c4)ccc3O2)CC1` [Example 73, 6-(Benzofuran-5-yl)spiro[chromane-2,4′-piperidine]-1′-carboxamide], the figure is 1000 to 10000 nM; as for `NC(=O)N1CCC2(CCc3cc(-c4ccc5ncsc5c4)ccc3O2)CC1` [Example 74, 6-(1,3-benzothiazol-6-yl)spiro[chromane-2,4′-piperidine]-1′-carboxamide], 1000 to 10000 nM.
On to `Cn1ccc2cc(-c3ccc4c(c3)CCC3(CCN(C(N)=O)CC3)O4)ccc21` [Example 75, 6-(1-Methylindol-5-yl)spiro[chromane-2,4′-piperidine]-1′-carboxamide], for which the IC50 was in the range of 100 to 999 nM.
The same measure, in the same setting: as for `NC(=O)N1CCC2(CCc3cc(-c4ccc5[nH]ccc5c4)ccc3O2)CC1` [Example 76, 6-(1H-Indol-5-yl)spiro[chromane-2,4′-piperidine]-1′-carboxamide], the figure is 100 to 999 nM.

By IC50 is commonly meant the concentration that inhibits the measured activity by half.
